Assay [1] relates to active dry yeast “z”. Nature of the assay: EVOP optimization of phosphorus and sulfur concentrations for fermentation rate in corn mash. Format: cell-based, Saccharomyces cerevisiae. As to conditions: combined with 16 mM urea, 0.049 g/L MgSO4.7H2O and 0.273 mg/L ZnSO4.7H2O. As for the experimental part:
The Evolution Operation Method (EVOP) described by Box et al, (1969, Evolutionary Operation: A Statistical Method for Process Improvement, John Wiley & Sons, NY, N.Y.) was used to optimize the concentrations of phosphorus and sulfur combined with urea, magnesium and zinc for increasing fermentation rates in corn mash.
Multiple sterile 2-L Celstir® fermentors were each filled with 1 L of corn mash supplemented with 16 mM urea, 0.049 g/L MgSO4.7H2O, and 0.273 mg/L ZnSO4.7H2O. The active dry yeast “z” was used as the inoculum in this study. The EVOP testing was conducted by using the “low” concentration values of phosphorus and sulfur (0.8 g/L (NH4)2HPO4 and 0.16 g/L (NH4)2SO4) from Table 1 as the center points for assessing 4 additional phosphorus and sulphur concentrations around these points for their effects on fermentation rates. If the response of a particular point around the center point was significant, then this particular point became the new center point and 4 new concentration values would be examined as described by Box et al (1969). […] Fermentation rates were determined by repeated sampling and sample processing at specific time intervals as described in Example 1.

The test system of assay [2] is active dry yeast “z”. Put plainly: Individual nutritive elements added to normal gravity corn mash: fermentation rate and viable cell numbers. Format: cell-based, Saccharomyces cerevisiae. As for the experimental part:
Normal gravity corn mash was prepared using ground #2 yellow dent corn obtained from Commercial Alcohols Inc. (275 Bloomfield Road, Chatham, Ontario, Canada N7M 5J5). […] One part by weight of ground corn was dispersed into three parts of 50° C., sterile dH2O containing 1 mM CaCl2.2H2O. To minimize the development of excessive viscosity during gelatinization, 1.25 mL of high temperature (HT-2X) α-amylase such as was supplied by Alltech Inc. in Nicholasville, Ky., USA (HT-2X α-amylase is no longer available from Alltech), was added per litre of mash as the ground corn was dispersed. It should be noted that if Ca-independent alpha amylases are used such as Termamyl® SC supplied by Novozymes North America in Franklinton, N.C., USA, then the 1 mM CaCl2.2H2O is not required. Following the addition of the ground corn and a five-minute mixing period to produce a homogenous mixture, the temperature was increased until the mash reached 94° C. where it was held at this temperature for 60 min with continued stirring. The temperature of the gelatinized starch was then reduced to 80° C. and liquefied by a second dose of HT-2X αx-amylase (1.25 mL/L) with continued stirring for 30 min. Sterile Celstir® (Wheaton Scientific, Millville, N.J.) fermentor vessels were filled with 1 L aliquots of this mash. To each fermentor vessel, filter-sterilized (25 mm, 0.2 μm Acrodisc® syringe filter, Pall Corporation, Ann Arbor, Mich.) urea (Fisher Scientific, Co., NJ), was added to achieve a final concentration of 8 mM. Cold-sterilization of the mash was assured by the addition of 100 μL of diethyl pyrocarbonate (DEPC, Sigma Chemical Co.) per litre of mash mixing the mash mechanically (IKA-Labortechnik, Staufen, Germany) for 5-10 min followed by cooling the fermentor vessels at 4° C. cold room for ˜72 hrs. The fermentor vessels were then removed from the cold room, connected to 30° C. water bath circulators and mixed. Glucoamylase in the form of Allcholase II 400 supplied by Alltech Inc. was then added (1.5 mL/L mash) 30 min prior to yeast inoculation to initiate saccharification of the dextrins formed during gelatinization and liquefaction (it should be noted that Allcholase II 400 is no longer available and any glucoamylase may be used). The mash thus prepared contained 19-20 g of dissolved solids/100 mL of mash as determined by a digital density meter analyzer (model DMA-45, Anton Paar KG, Graz, Austria) maintained at 20° C.
Eleven grams of a commercially available active dry yeast, designated as “z”, were rehydrated by dispersal in 99 mL of preheated 38° C., 0.1% (w/v) sterile water and incubation for 20 min with periodic shaking in a 38° C. water bath. Fermentor vessels containing normal density corn mash were prepared as described above and inoculated with sufficient active yeast to provide an initial viable cell count of 1×10^7 cells per mL mash. The optimal fermentation temperature for the active dry yeast “z” was determined by conducting fermentations at 30°, 34°, 36°, 38°, and 40° C.
The effects of individual elements on yeast cell biomass production and fermentation in a fermentation feedstock were assessed by separately supplementing of corn mash with nitrogen, phosphorus, magnesium, sulphur and zinc. Nitrogen effects were assessed in corn mashes by the additions of urea to provide final concentrations in the mash of […]. Phosphorus effects were assessed in corn mashes amended with 16 mM urea, by the additions of (NH4)2HPO4 (BDH Chemicals Inc, Toronto, Ont., MW: 132.06) to provide final concentrations of 0, 0.1, 0.2, 0.4, 0.6, and 0.8 g of (NH4)2HPO4/L of mash. Magnesium effects were assessed in corn mashes amended with 16 mM urea, by the additions of MgSO4.7H2O (BDH Chemicals Inc., MW. 246.48) to provide final concentrations of 0, 0.025, 0.049, 0.074, 0.099, 0.148, 0.197 g of MgSO4.7H2O/L of mash. […]

The mark [3] stands for this setting: (NH4)2HPO4 above 0.4 g/L, mash with 16 mM urea.
[4] abbreviates: ZnSO4.7H2O 0.287 mg/L to 2.30 mg/L (1 to 8 μM), mash with 16 mM urea.

Structures are written as SMILES.

Regarding `N.N.O=P(O)(O)O` [(NH4)2HPO4], in the assay with active dry yeast “z” [1], the “optimal concentration for supplementing corn mash” value is 1.6 g/L. In the assay with active dry yeast “z” [2] (0.1 g/L to 0.4 g/L (NH4)2HPO4, mash with 16 mM urea), the “effect on rates of dissolved solids utilization” value was “significantly increased”. Moreover, in the assay with active dry yeast “z” [2] (setting [3]), the “effect on cell yields” value is recorded as “decreased cell yields” and the “effect on fermentation rates” value is listed as “decreased fermentation rates”.

As to `N.N.O=S(=O)(O)O` [(NH4)2SO4], the “optimal concentration for supplementing corn mash” value with active dry yeast “z” [1] was determined as 0.32 g/L. Further, the “effect on the rate of fermentation” value with active dry yeast “z” [2] ((NH4)2SO4 above 0.04 g/L, mash with 16 mM urea) is “did not further benefit”. In the assay with active dry yeast “z” [2] ((NH4)2SO4 above 0.04 g/L, mash with 16 mM urea, increased from 3.3×10^8/mL), this compound showed a yeast cell yields of 4e+08 mL⁻¹.

As to `O.O.O.O.O.O.O.O=S(=O)([O-])[O-].[Mg+2]` [MgSO4.7H2O], the “effect on fermentation rate” value in the assay on active dry yeast “z” [2] (MgSO4.7H2O exceeding 0.074 g/L (0.3 mM Mg2+), mash with 16 mM urea) is listed as “decreased fermentation rate”.

As for `O.O.O.O.O.O.O.O=S(=O)([O-])[O-].[Zn+2]` [ZnSO4.7H2O], in the assay with active dry yeast “z” [2] (setting [4]), the “effect on fermentation rates” value is given as “negative effects” and the “effect on numbers of yeast cells produced” value is recorded as “negative effects”.

Source of the values: patent US20070190628A1, “Yeast food composition for fuel ethanol production” (priority 2006, published 2007).
